Assays:
MCF10CA1a = experiment: SRB cell viability, isogenic breast cell lines; format: cell-based; settings: MCF10CA1a (MCF10Ala [sic]), 72 hours; for viability at 0.03125 µM: 31.25 nM; for Cell survival rate: 0.39 μM
Protocol: FIG. 9 illustrates that CTR-17, CTR-20, CTR-21 and CTR-32 preferentially kill the fully malignant […] breast cancer cells over the pre-malignant MCF10AT1 and the non-malignant MCF-10A breast cells. Cells were treated with (A) CTR-17 at doses of 0.10, 0.39, 1.56 or 6.25 μM; (B) CTR-20 at doses of 0.10, 0.39, 1.56 or 6.25 μM; (C) CTR-21 at doses of 7.81, 15.63, 31.25, 62.5, 125 or 250 nM; or (D) CTR-32 at doses of 7.81, 15.63, 31.25, 62.5, 125 or 250 nM for 72 hours. Cell viability was determined using an SRB assay.
All of the cell lines used were purchased from ATCC and cultured in RPMI-1640 supplemented with 10% fetal bovine serum and antibiotics (100 units penicillin/100 μg/ml streptomycin), unless stated otherwise. 1845B5 and MCF-10A non-cancer breast cell lines were cultured in DME/F12 medium supplemented with 10% fetal bovine serum, antibiotics and growth factors. KB-3-1 is a human epidermal carcinoma cell line and KB-C-2 is its isogenic multidrug-resistant cell line with over-expressing ABCB1/P-gp. […] The human small cell lung carcinoma H69 cell line and its multidrug-resistant MRP1-overexpressing isogenic H69AR cell line were purchased from ATCC. The H69AR cell line was established in the presence of increasing concentrations of Adriamycin (doxorubicin). H69 cells grow as large multi-cell aggregates, making it difficult to accurately count cell numbers. Therefore, the cytotoxicity results obtained from H69AR cells were compared to SW1271, a small cell lung carcinoma cell line without a multidrug-resistant phenotype. The IL-6 dependent bortezomib-resistant ANBL6-BR cell line was further supplemented with 1 ng/ml of IL-6. The MCF10AT1 and MCF10CA1a cell lines are isogenic to the MCF10A cell line, and obtained from Dr. Valerie Weaver at the Center for Bioengineering and Tissue Regeneration, UCSF, CA, USA. MCF10AT1 is a premalignant cell line generated by transforming MCF10A with c-Ha-Ras; and MCF10CA1a was isolated by selecting malignant cells after MCF10AT1 cells were engrafted into mice (Liu & Lin 2004; Marella et al. 2009). The MCF10AT1 and MCF10CA1a cells were cultured in DMEM supplemented with 10% FBS (volume/volume). MDA-MB231TaxR cell line was generated in house by culturing MDA-MB231 cells in gradually increasing doses of paclitaxel over one-year period, and finally maintained at 100 nM paclitaxel. The drug-resistant cells were cultured in the absence of drug for at least one passage before carrying out experiments. All cells were maintained in a humidified incubator at 37° C. (5% CO2/95% air). Cell line authentication was performed using short tandem repeat (STR) profiling.
For (anti)proliferation assays, 4,000-5,000 cells/well of the 96-well clustered dish were incubated for 16 hours, as described previously (Hu et al., 2008; Skehan et al., 1990). After 16 hours, culture medium was replaced with fresh medium containing different dilutions of test compounds dissolved in DMSO. Some wells were treated with 100 μl of 10% trichloroacetic acid (TCA) as a negative control and sham (medium with dimethyl sulfoxide; DMSO) treated cells were used as a positive control. After 72 hours post-incubation, medium was removed and cells were fixed with 10% TCA at 4° C. for 1 hour. TCA was removed and cells were washed with cold tap water, and plate was air-dried, followed by addition of 50 μl of 0.4% SRB staining solution to each well. After 30 minutes incubation, SRB staining solution was removed. Cells were washed with 1% acetic acid solution, and then washed with tap water to remove unbound staining solution, followed by air-drying. 200 μl of 10 mM (pH10.5) trizma base buffer was added to each well to solubilise macromolecules. SRB stained macromolecules were determined at a 540 nm wavelength using an automated plate reader (Synergy H4 Hybrid Multi-Mode Microplate Reader, BioTek, Winooski, Vt.). Cell growth (inhibition) was calculated by the following formula: […]

Kidney histology (H&E) = format: in vivo, mice; settings: day 30; paclitaxel 10 mg/kg; CTR 30 mg/kg; or paclitaxel 5 mg/kg + CTR 15 mg/kg
Protocol: Animals were monitored for food and water consumption every day, and their body weights and tumor volumes were measured twice per week. Tumor volumes were measured with a digital caliper and were determined by using the following formula: ½ length×width^2. Blood samples were collected via cardiac puncture and processed further for ALT and AST measurements. The animals were then immediately euthanized by carbon dioxide. Tumors and vital organs (spleen, kidney, liver and lung) were collected and fixed in 10% buffered formalin at 4° C. overnight before being processed for paraffin embedding. The paraffin-embedded blocks were then cut into 4-5 μm thick sections. Each section of tumors and organs was stained with hematoxylin and eosin (H&E).
Changes in body weight, hemoglobin (Hb) and the amount and ratio of alanine transaminase (ALT)/aspartate transaminase (AST) were used to measure toxic effects. In addition, vital organs (liver, spleen, kidney and lung) were analyzed by […] after they were harvested, fixed, processed, paraffin-embedded, sectioned, and stained as described above.
ATH490 mice were treated as described in Table 11. At day 30, kidneys were harvested, stained with H&E, and observed under a Zeiss EPI-fluorescent microscope (40× objective).

| SMILES | viability at 0.03125 µM (MCF10CA1a) | Cell survival rate (MCF10CA1a) | effects on the kidney (Kidney histology (H&E)) |
| --- | --- | --- | --- |
| COc1ccccc1C(=O)/C=C/c1cc2cccc(OC)c2[nH]c1=O [CTR-21, (E)-8-methoxy-3-(3-(2-methoxyphenyl)-3-oxoprop-1-enyl) quinolin-2(1H)-one] | 10% | – | – |
| CCOc1ccccc1C(=O)/C=C/c1cc2ccccc2[nH]c1=O [CTR-32, (E)-3-(3-(2-ethoxyphenyl)-3-oxoprop-1-enyl)quinolin-2(1H)-one] | 40% | – | – |
| COc1ccccc1C(=O)/C=C/c1cc2ccccc2[nH]c1=O [CTR-17, (E)-3-(3-(2-Methoxyphenyl)-3-oxoprop-1-enyl)quinolin-2(1H)-one] | – | 39% | generally did not cause any notable ill-effects to the kidney |
| COc1ccc2[nH]c(=O)c(/C=C/C(=O)c3ccccc3OC)cc2c1 [CTR-20, (E)-6-Methoxy-3-(3-(2-methoxyphenyl)-3-oxoprop-1-enyl) quinolin-2(1H)-one] | – | 10% | generally did not cause any notable ill-effects to the kidney |
| CC(=O)O[C@H]1C(=O)[C@@]2(C)[C@H]([C@H](OC(=O)c3ccccc3)[C@]3(O)C[C@H](OC(=O)[C@H](O)[C@@H](NC(=O)c4ccccc4)c4ccccc4)C(C)=C1C3(C)C)[C@]1(OC(C)=O)CO[C@@H]1C[C@@H]2O [Paclitaxel, reference compound] | – | – | approximately 1 out of 5 mice showed renal abnormalities |

Reference: patent US20180344725A1, “QUINOLONE CHALCONE COMPOUNDS AND USES THEREOF” (priority 2015, published 2018)
